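A five-concentration, 48-hour dose response in 96-well plates underlies each endpoint, interpolated linearly between surrounding concentrations. GI50 marks 50% less growth.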 Calls of active or inactive are those of the source. Rule as the data show it: active = GI50 up to about 1.1 µM and inactive = higher.
What was measured:
Test in all cases: NCI tumour cell line growth inhibition, 48 h
[1] = test system: 786-0
[2] = test system: A549
[3] = test system: ACHN
[4] = test system: BT-549
[5] = test system: COLO 205
[6] = test system: HL-60
[7] = test system: Hs-578T
[8] = test system: MDA-MB-231
[9] = test system: MOLT-4
[10] = test system: Malme-3M
[11] = test system: NCI-H226
[12] = test system: OVCAR-3
[13] = test system: OVCAR-4
[14] = test system: PC-3
[15] = test system: SR
[16] = test system: T47D
[17] = test system: U-251
[18] = test system: UACC-257
[19] = test system: UACC-62
[20] = test system: UO-31

Structure (SMILES) | GI50 [1] | GI50 [2] | GI50 [3] | GI50 [4] | GI50 [5] | GI50 [6] | GI50 [7] | GI50 [8] | GI50 [9] | GI50 [10] | GI50 [11] | GI50 [12] | GI50 [13] | GI50 [14] | GI50 [15] | GI50 [16] | GI50 [17] | GI50 [18] | GI50 [19] | GI50 [20]
O=C(O)c1[nH]c2c([N+](=O)[O-])cc([N+](=O)[O-])cc2c1C(=O)O | > 100 µM (inactive) | > 100 µM (inactive) | > 100 µM (inactive) | > 100 µM (inactive) | > 100 µM (inactive) | > 100 µM (inactive) | > 100 µM (inactive) | > 100 µM (inactive) | > 100 µM (inactive) | > 100 µM (inactive) | > 100 µM (inactive) | > 100 µM (inactive) | > 100 µM (inactive) | > 100 µM (inactive) | 75.5 µM (inactive) | > 100 µM (inactive) | > 100 µM (inactive) | > 100 µM (inactive) | > 100 µM (inactive) | > 100 µM (inactive)
CN(C)CC1CC/C(=C\c2ccc(O)cc2)C1=O (stereo not given) | 2.16 µM (inactive) | 19 µM (inactive) | 3.51 µM (inactive) | 2.06 µM (inactive) | 1.87 µM (inactive) | 0.631 µM (active) | 7.11 µM (inactive) | 4.14 µM (inactive) | 1.69 µM (inactive) | 2.94 µM (inactive) | 10.4 µM (inactive) | 3.67 µM (inactive) | 7.38 µM (inactive) | 9.08 µM (inactive) | 0.931 µM (active) | 2.14 µM (inactive) | 6.71 µM (inactive) | 3.94 µM (inactive) | 6.12 µM (inactive) | 12.9 µM (inactive)
C/C(=N\N=C(/S)N(C)C)c1cccc[n+]1[O-] | 28.6 µM (inactive) | 59.7 µM (inactive) | 38.2 µM (inactive) | 49.9 µM (inactive) | 0.82 µM (active) | 1.03 µM (active) | 92.9 µM (inactive) | 2.99 µM (inactive) | 0.914 µM (active) | 43.7 µM (inactive) | 54.6 µM (inactive) | 5.12 µM (inactive) | 46.8 µM (inactive) | 15.4 µM (inactive) | 1.23 µM (inactive) | 0.413 µM (active) | 44.3 µM (inactive) | 4.38 µM (inactive) | 16.1 µM (inactive) | 23.2 µM (inactive)
COc1c2c(cc3c1OCO3)[C@]13C=C[C@H](OC)C[C@H]1N(C2)CC3O (stereo not given in full) | > 100 µM (inactive) | > 100 µM (inactive) | > 100 µM (inactive) | > 100 µM (inactive) | > 100 µM (inactive) | > 100 µM (inactive) | > 100 µM (inactive) | > 100 µM (inactive) | 99.1 µM (inactive) | > 100 µM (inactive) | > 100 µM (inactive) | > 100 µM (inactive) | > 100 µM (inactive) | > 100 µM (inactive) | 18.4 µM (inactive) | > 100 µM (inactive) | > 100 µM (inactive) | > 100 µM (inactive) | > 100 µM (inactive) | > 100 µM (inactive)
O=C(O)CC(C(=O)O)C1c2ccccc2-c2ccccc21 (stereo not given) | > 100 µM (inactive) | 56.4 µM (inactive) | 92.9 µM (inactive) | > 100 µM (inactive) | 81.8 µM (inactive) | > 100 µM (inactive) | > 100 µM (inactive) | > 100 µM (inactive) | 48.2 µM (inactive) | 58.6 µM (inactive) | > 100 µM (inactive) | 35.5 µM (inactive) | > 100 µM (inactive) | > 100 µM (inactive) | 37.5 µM (inactive) | 20.2 µM (inactive) | 39.3 µM (inactive) | > 100 µM (inactive) | > 100 µM (inactive) | > 100 µM (inactive)
CCOC(=O)c1ccc(NC(=O)O/N=C(/Cl)C(C)C)cc1 | 6.67 µM (inactive) | 21.7 µM (inactive) | 14 µM (inactive) | 14.9 µM (inactive) | 2.42 µM (inactive) | 1.23 µM (inactive) | 29.5 µM (inactive) | 19.5 µM (inactive) | 1.92 µM (inactive) | 3.76 µM (inactive) | 24.4 µM (inactive) | 5.28 µM (inactive) | 14.5 µM (inactive) | 20.4 µM (inactive) | 2.87 µM (inactive) | 2.75 µM (inactive) | 19.1 µM (inactive) | 16.9 µM (inactive) | 18.9 µM (inactive) | 17.8 µM (inactive)
O=C(Nc1nn(C(=O)c2ccc(Cl)cc2)c(=O)s1)c1ccc(Cl)cc1 | > 100 µM (inactive) | > 100 µM (inactive) | > 100 µM (inactive) | > 100 µM (inactive) | > 100 µM (inactive) | > 100 µM (inactive) | > 100 µM (inactive) | > 100 µM (inactive) | > 100 µM (inactive) | > 100 µM (inactive) | > 100 µM (inactive) | > 100 µM (inactive) | > 100 µM (inactive) | > 100 µM (inactive) | > 100 µM (inactive) | > 100 µM (inactive) | > 100 µM (inactive) | > 100 µM (inactive) | > 100 µM (inactive) | > 100 µM (inactive)
COc1ccc2c(c1)OC(c1cccnc1)C(c1ccccc1)C2=O (stereo not given) | 86.1 µM (inactive) | > 100 µM (inactive) | > 100 µM (inactive) | > 100 µM (inactive) | > 100 µM (inactive) | > 100 µM (inactive) | 54 µM (inactive) | > 100 µM (inactive) | > 100 µM (inactive) | > 100 µM (inactive) | 98.9 µM (inactive) | > 100 µM (inactive) | > 100 µM (inactive) | > 100 µM (inactive) | > 100 µM (inactive) | > 100 µM (inactive) | 43.8 µM (inactive) | > 100 µM (inactive) | > 100 µM (inactive) | > 100 µM (inactive)
CCCCON1C[C@H](OC(C)=O)C(OC(C)=O)[C@H](OC(C)=O)C1 (stereo not given in full) | > 100 µM (inactive) | > 100 µM (inactive) | > 100 µM (inactive) | > 100 µM (inactive) | > 100 µM (inactive) | > 100 µM (inactive) | > 100 µM (inactive) | > 100 µM (inactive) | > 100 µM (inactive) | > 100 µM (inactive) | > 100 µM (inactive) | > 100 µM (inactive) | 7.14 µM (inactive) | > 100 µM (inactive) | > 100 µM (inactive) | > 100 µM (inactive) | > 100 µM (inactive) | > 100 µM (inactive) | > 100 µM (inactive) | > 100 µM (inactive)
NCC(O)CSP(=O)(O)O (stereo not given) | > 100 µM (inactive) | > 100 µM (inactive) | > 100 µM (inactive) | > 100 µM (inactive) | > 100 µM (inactive) | > 100 µM (inactive) | > 100 µM (inactive) | > 100 µM (inactive) | > 100 µM (inactive) | > 100 µM (inactive) | > 100 µM (inactive) | > 100 µM (inactive) | > 100 µM (inactive) | > 100 µM (inactive) | > 100 µM (inactive) | > 100 µM (inactive) | > 100 µM (inactive) | > 100 µM (inactive) | > 100 µM (inactive) | > 100 µM (inactive)
COc1ccc(Cc2cc(OC)c(OC)c(OC)c2)cc1 | 0.429 µM (active) | 0.417 µM (active) | 0.771 µM (active) | 1.54 µM (inactive) | 0.143 µM (active) | 0.0586 µM (active) | 0.215 µM (active) | 0.711 µM (active) | 0.221 µM (active) | 0.387 µM (active) | 0.923 µM (active) | 0.151 µM (active) | 10.6 µM (inactive) | 0.234 µM (active) | 0.0436 µM (active) | 30.8 µM (inactive) | 0.261 µM (active) | 0.509 µM (active) | 0.129 µM (active) | 0.766 µM (active)
